The values below come from ChEMBL document CHEMBL3804812, “Design, Syntheses, and Anti-TB Activity of 1,3-Benzothiazinone Azide and Click Chemistry Products Inspired by BTZ043” (ACS Med Chem Lett, 2016).

In brackets after ≈: the same amount, converted by molar mass. Activity calls are given as the source filed them.

Experiment [1] has as its target T1, Decaprenylphosphoryl-beta-D-ribose oxidase (Mycobacterium smegmatis (strain ATCC 700084 / mc(2)155)) (UniProt A0R607).
T1 sequence (whole entry): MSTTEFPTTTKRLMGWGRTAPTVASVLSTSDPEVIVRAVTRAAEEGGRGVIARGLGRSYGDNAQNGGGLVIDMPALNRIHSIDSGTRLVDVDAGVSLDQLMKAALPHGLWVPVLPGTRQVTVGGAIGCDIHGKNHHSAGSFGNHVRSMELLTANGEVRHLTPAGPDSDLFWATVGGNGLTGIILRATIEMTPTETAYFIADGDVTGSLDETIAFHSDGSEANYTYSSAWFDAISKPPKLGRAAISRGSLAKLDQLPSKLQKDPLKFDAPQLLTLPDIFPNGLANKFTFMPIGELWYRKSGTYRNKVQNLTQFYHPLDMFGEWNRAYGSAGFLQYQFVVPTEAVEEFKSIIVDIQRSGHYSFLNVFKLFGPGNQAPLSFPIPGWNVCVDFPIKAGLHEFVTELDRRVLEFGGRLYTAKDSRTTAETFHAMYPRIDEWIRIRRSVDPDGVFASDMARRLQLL
The experiment can be described thus: Inhibition of DprE1 in P-14C-RPP-labelled Mycobacterium smegmatis MC2 155 cell membranes assessed as supression of conversion of decaprenylphosphoryl ribose to decaprenylphosphoryl arabinose after 1 hr by TLC analysis. It is filed as cell-based. The conditions noted are these: Mycolicibacterium smegmatis MC2 155.

Experiment [2] deals with Mycobacterium tuberculosis. The experiment is described as follows: Antibacterial activity against Mycobacterium tuberculosis H37Rv in GAS medium by microplate alamar blue assay. In kind it is functional. The settings on record: for MIC: Mycobacterium tuberculosis, H37Rv. For orientation: Resazurin is reduced to fluorescent resorufin, in cell work by metabolically active cells.

Experiment [3] relates to Mycobacterium tuberculosis. The experiment can be described thus: Antibacterial activity against Mycobacterium tuberculosis H37Rv in 7H12 medium by microplate alamar blue assay. The conditions noted are these: for MIC: Mycobacterium tuberculosis, H37Rv. It is filed as functional.
Experiment [4] deals with T2, Decaprenylphosphoryl-beta-D-ribose oxidase (Mycobacterium tuberculosis (strain ATCC 25618 / H37Rv)) (UniProt P9WJF1).
T2 sequence (whole entry): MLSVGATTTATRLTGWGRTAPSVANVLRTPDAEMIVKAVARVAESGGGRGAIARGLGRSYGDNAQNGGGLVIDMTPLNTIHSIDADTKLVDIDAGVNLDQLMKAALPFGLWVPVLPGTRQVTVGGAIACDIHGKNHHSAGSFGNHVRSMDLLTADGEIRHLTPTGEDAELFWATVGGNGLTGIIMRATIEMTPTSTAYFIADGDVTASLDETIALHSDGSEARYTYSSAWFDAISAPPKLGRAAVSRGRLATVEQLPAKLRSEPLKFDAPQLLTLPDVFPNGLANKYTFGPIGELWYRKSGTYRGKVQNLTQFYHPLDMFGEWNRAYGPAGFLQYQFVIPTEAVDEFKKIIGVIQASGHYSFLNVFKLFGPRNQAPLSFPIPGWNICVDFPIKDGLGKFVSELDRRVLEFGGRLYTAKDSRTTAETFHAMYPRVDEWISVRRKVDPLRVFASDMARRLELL
The experiment is described as follows: Reversible inhibition of recombinant Mycobacterium tuberculosis H37Rv DprE1 using FPR as substrate assessed as residual enzymatic activity preincubated for 10 mins followed by substrate addition by fluorescence assay.

For experiment [5], the target named is T3, Decaprenylphosphoryl-beta-D-ribose oxidase (Mycobacterium tuberculosis (strain ATCC 25618 / H37Rv), UniProt P9WJF1).
T3 sequence (P9WJF1 whole entry): T2 sequence (whole entry)
The experiment is described as follows: Inhibition of recombinant Mycobacterium tuberculosis H37Rv DprE1 using FPR as substrate assessed as residual enzymatic activity preincubated for 10 mins followed by substrate addition by fluorescence assay.

Experiment [6] has as its target T2, Decaprenylphosphoryl-beta-D-ribose oxidase (Mycobacterium tuberculosis (strain ATCC 25618 / H37Rv)). The experiment is described as follows: Irreversible inhibition of recombinant Mycobacterium tuberculosis H37Rv DprE1 using FPR as substrate assessed as residual enzymatic activity preincubated for 10 mins followed by substrate addition by fluorescence assay.
Experiment [7] deals with Mycobacterium tuberculosis. The experiment is described as follows: Antibacterial activity against Mycobacterium tuberculosis H37Rv in GAS medium at >1uM by microplate alamar blue assay. It is filed as functional.
Experiment [8] relates to Mycobacterium tuberculosis. The experiment is described as follows: Antibacterial activity against Mycobacterium tuberculosis H37Rv in 7H12 medium at >1uM by microplate alamar blue assay. In kind it is functional.

With `C[C@H]1COC2(CCN(c3nc(=O)c4cc(C(F)(F)F)cc(N=[N+]=[N-])c4s3)CC2)O1`, the inhibition result in experiment [1] is “inactive”. Moreover, the MIC in experiment [2] is 0.46 µM (≈ 0.197 µg/mL); in experiment [3], 0.47 µM (≈ 0.201 µg/mL). The inhibition entry in experiment [4] is “Active”. Also, the IC50 in experiment [5] worked out at 9.6 µM.

Take `C[C@H]1COC2(CCN(c3nc(=O)c4cc(C(F)(F)F)cc([N+](=O)[O-])c4s3)CC2)O1` [BTZ-043]: the inhibition result in experiment [1] and in experiment [6] was “Active” each time. For the same compound, the minimum inhibitory concentration (MIC) in experiment [2] and in experiment [3] was less than 0.004 µM each time.

On to `CCOC(=O)c1cn(-c2cc(C(F)(F)F)cc3c(=O)nc(N4CCC5(CC4)OC[C@H](C)O5)sc23)nn1`, for which the “growth inhibition (GI)” value in experiment [7] is given as 34%. In addition, the MIC in experiment [2] was more than 1 µM; in experiment [3] it was 0.93 µM (≈ 0.489 µg/mL).

In the case of `C[C@H]1COC2(CCN(c3nc(=O)c4cc(C(F)(F)F)cc(-n5cc(CN(C)C)nn5)c4s3)CC2)O1`, the minimum inhibitory concentration (MIC) worked out at 0.95 µM (≈ 0.485 µg/mL) in experiment [2] and 0.87 µM (≈ 0.444 µg/mL) in experiment [3].

For `C[C@H]1COC2(CCN(c3nc(=O)c4cc(C(F)(F)F)cc(N)c4s3)CC2)O1`, the “growth inhibition (GI)” value turned out to be 0% in experiment [7] and 87% in experiment [8]. Also, the “inhibition (INH)” value in experiment [2] was 10%; in experiment [3] it was 12%. Further, the minimum inhibitory concentration (MIC) in experiment [2] and in experiment [3] was more than 10 µM throughout.

For `C[C@H]1COC2(CCN(c3nc(=O)c4cc(C(F)(F)F)cc(-n5cc(Cc6ccccc6)nn5)c4s3)CC2)O1`, the “growth inhibition (GI)” value in experiment [7] and in experiment [8] was 0% each time. Further, the figures for the minimum inhibitory concentration (MIC) in experiment [2] and in experiment [3] were 9.27 µM (≈ 5.04 µg/mL) and 9.9 µM (≈ 5.38 µg/mL), respectively.

Consider `CO[C@H]1/C=C/O[C@@]2(C)Oc3c(C)c(O)c4c(O)c(c(/C=N/N5CCN(C)CC5)c(O)c4c3C2=O)NC(=O)/C(C)=C\C=C\[C@H](C)[C@H](O)[C@@H](C)[C@@H](O)[C@@H](C)[C@H](OC(C)=O)[C@@H]1C` [RIFAMPIN], for which the MIC in experiment [2] stood at 0.04 µM (≈ 0.0329 µg/mL); in experiment [3], 0.05 µM (≈ 0.0411 µg/mL).

Take `C[C@H]1COC2(CCN(c3nc(=O)c4cc(C(F)(F)F)ccc4s3)CC2)O1`: in experiment [1], the inhibition entry was “inactive”. Besides, the MIC is 8.68 µM (≈ 3.35 µg/mL) in experiment [2] and more than 100 µM in experiment [3].

In general, MIC refers to the smallest concentration in the dilution series that meets the test's criterion for growth inhibition. Lower therefore signals inhibition by little substance. A word on the IC50: it is the concentration that inhibits the measured activity by half.
